Data as given in US12178810B2 (priority 2016, dated 2024).

Columns and labels:
[1] = test system: Healthy human male volunteers; assay: Retrospective analysis of the Phase 1 DDI study: heart rate and blood pressure at rest; format: in vivo
Text: FIG. 2. […] By ‘t’ test—Wilcoxon matched-pairs signed rank test.
(§1) Healthy human male volunteers, 18-50 years of age. A total of 14 subjects were included in the study.
(§2) Two consecutive study periods separated by a washout period of at least three days. The sequence of events was the same for all subjects.
Particularly, the effect of tesofensine-metoprolol on heart rate and blood pressure at rest, was investigated.

healthy male subjects = conditions: metoprolol alone; cited from earlier work
CYP2D6 = target: T1, CYP2D6 (Homo sapiens, UniProt P10635); assay: Phase 1 drug-drug interaction (DDI) study with metoprolol: metoprolol pharmacokinetics without and with tesofensine at steady state; format: in vivo; conditions: metoprolol 50 mg single dose after 14 days tesofensine vs metoprolol alone
T1 construct: Healthy human male volunteers, 18-50 years of age; A total of 14 subjects were included in the study; from tissue; host or cells: in vivo, healthy human male volunteers (endogenous enzyme)
Text: FIG. 1. PK of metoprolol after a single dosing in absence and presence of tesofensine at steady state.
as §1, §2

obese patients = conditions: long-term treatment, corrected for placebo and diet effects; cited from earlier work

T1 sequence (P10635 whole entry): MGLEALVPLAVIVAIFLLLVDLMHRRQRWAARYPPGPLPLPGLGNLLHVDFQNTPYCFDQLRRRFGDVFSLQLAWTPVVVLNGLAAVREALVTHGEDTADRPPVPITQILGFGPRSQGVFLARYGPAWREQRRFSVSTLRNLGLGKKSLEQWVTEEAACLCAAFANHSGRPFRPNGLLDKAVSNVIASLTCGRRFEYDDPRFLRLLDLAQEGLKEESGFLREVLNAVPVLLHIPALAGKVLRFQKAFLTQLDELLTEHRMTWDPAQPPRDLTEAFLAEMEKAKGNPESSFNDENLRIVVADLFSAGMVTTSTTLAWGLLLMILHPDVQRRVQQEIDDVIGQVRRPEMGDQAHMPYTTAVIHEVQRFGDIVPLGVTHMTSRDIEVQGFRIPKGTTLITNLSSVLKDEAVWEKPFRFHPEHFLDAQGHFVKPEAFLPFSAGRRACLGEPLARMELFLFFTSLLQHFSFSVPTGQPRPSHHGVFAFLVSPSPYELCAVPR

SMILES	effect on tesofensine-induced increase in heart rate, 7 hours after single metoprolol dose ([1]; day 14, tesofensine treated subjects, 7 hours after metoprolol)	effect on heart rate, ~24 hours after single metoprolol dose ([1]; day 15, tesofensine treated subjects, ~24 hours after metoprolol)	decrease in supine diastolic blood pressure (healthy male subjects)	decrease in supine systolic blood pressure (healthy male subjects)	effect on metoprolol Cmax (CYP2D6)	effect on metoprolol Tmax (CYP2D6)	weight loss (obese patients)	heart rate after 14 days of tesofensine vs prelevel ([1]; tesofensine only, day 14, p<0.01 vs prelevel)	diastolic BP after 14 days of tesofensine treatment ([1]; tesofensine only, vs pre-treatment)	systolic BP after 14 days of tesofensine treatment ([1]; tesofensine only, vs pre-treatment, not significant)
COCCc1ccc(OCC(O)CNC(C)C)cc1 (stereo not shown) [metoprolol, 1-(Isopropylamino)-3-[4-(2-methoxyethyl)-phenoxy]-propan-2-ol]	normalize the tesofensine-induced increase in heart rate	disappeared	about 4 mmHg	about 4 mmHg	–	–	–	–	–	–
CCOC[C@@H]1[C@@H](c2ccc(Cl)c(Cl)c2)C[C@@H]2CC[C@H]1N2C [tesofensine, (1R,2R,3S,5S)-3-(3,4-dichlorophenyl)-2-(ethoxymethyl)-8-methyl-8-azabicyclo[3.2.1]octane]	–	–	–	–	no effect	no effect	about 10%	Increase in heart rate	essentially not altered	increase systolic BP slightly
